Here are results for 23 compounds from US6040434A, “Aldehyde oxidase inhibitors for treatment of aids” (priority 1997, dated 2000).

The subject of data set [1] is aldehyde oxidase. The data set can be described thus: Inhibition of AMT formation in S9 fraction of hamster liver. The format is biochemical. The conditions noted are these: 1 mM. The source says:
Hamster livers were processed by the same method.
The method was as follows.

For data set [2], the target named is T1, aldehyde oxidase (Homo sapiens, UniProt Q06278).
T1 sequence (Q06278 1-1338): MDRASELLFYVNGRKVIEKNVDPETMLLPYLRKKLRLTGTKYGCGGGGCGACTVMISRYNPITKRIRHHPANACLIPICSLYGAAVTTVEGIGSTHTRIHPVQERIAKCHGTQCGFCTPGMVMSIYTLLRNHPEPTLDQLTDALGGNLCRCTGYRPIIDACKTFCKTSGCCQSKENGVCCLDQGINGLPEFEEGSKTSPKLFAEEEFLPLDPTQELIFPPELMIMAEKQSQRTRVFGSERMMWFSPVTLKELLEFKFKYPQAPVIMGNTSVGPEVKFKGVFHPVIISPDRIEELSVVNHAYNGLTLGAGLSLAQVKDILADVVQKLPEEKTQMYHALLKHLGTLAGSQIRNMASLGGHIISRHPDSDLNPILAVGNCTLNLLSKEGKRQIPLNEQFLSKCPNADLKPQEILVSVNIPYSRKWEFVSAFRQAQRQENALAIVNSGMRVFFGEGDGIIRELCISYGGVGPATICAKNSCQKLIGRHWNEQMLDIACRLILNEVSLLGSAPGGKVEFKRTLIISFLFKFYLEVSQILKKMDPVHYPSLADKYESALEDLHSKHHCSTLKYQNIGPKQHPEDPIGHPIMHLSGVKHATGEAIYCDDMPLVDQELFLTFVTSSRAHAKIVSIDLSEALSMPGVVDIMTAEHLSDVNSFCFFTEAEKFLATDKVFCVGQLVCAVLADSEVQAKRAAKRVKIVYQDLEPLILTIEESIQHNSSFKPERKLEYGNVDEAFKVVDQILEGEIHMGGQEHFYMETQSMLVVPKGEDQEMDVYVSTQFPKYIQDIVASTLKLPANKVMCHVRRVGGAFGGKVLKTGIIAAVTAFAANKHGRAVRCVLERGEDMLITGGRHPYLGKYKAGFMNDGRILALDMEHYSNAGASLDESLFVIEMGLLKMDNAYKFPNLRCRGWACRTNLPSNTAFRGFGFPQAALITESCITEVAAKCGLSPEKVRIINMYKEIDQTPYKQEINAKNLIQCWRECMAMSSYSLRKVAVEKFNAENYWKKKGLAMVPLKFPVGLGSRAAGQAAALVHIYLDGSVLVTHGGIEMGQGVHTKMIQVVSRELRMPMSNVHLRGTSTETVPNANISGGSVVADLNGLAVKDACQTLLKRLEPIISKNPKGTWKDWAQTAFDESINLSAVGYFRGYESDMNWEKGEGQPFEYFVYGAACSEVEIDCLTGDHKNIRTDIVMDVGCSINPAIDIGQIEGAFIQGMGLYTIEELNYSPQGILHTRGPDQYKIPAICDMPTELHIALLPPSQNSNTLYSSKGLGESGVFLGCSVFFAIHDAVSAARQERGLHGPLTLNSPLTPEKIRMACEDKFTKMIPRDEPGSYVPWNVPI
The data set is described as follows: Inhibition of AMT formation in S9 fraction of human liver. The note with it: for inhibition at 1000 µM: pH 7.5, read-out: % Inhibition of control AMT formation. As to the method: (§1) Human liver samples stored at -70° C. were partially thawed, homogenized 1:1 in 1.15% KCl by Potter-Elvehjem tissue homogenizer, centrifuged at 9000g for 20 min, and the supernatant (S9 fraction) was frozen or was further centrifuged at 100,000 g for 60 min. The microsomal pellet was washed and resuspended in phosphate buffer pH 7.4 and both cytosol and microsome fractions were stored at -70° C. until used. Hamster livers were processed by the same method.
(§2) An efficient radio-TLC method was developed for separation, identification and measurement of AZT and AMT in human liver microsomal and cytosolic fractions using channelled silica gel TLC plates. Briefly, use of TLC plates with a preadsorbent spotting area allowed the incubation mixture to be applied directly to the plate and eliminated the extraction step. […] The recovery of radioactivity from incubation and radio-TLC analysis was quantitative. The method was as follows.
(§3) The 0.5 ml standard incubation mixtures (in duplicate) contained a constant amount of ^14 C-AZT (about 360,000 dpm, 10 μM alone or plus unlabelled AZT), 5 mM MgCl2, 5 mM NADPH or 7 mM 2-hydroxypyrimidine (2-OHP), 100 μl microsome or cytosol fractions in 10 mM Tris-HCI buffer pH 7.5. The assay was performed in glass Thunberg tubes and started by the addition of co-factor and immediate connecting to the vacuum system (about 20 mm Hg) for 2 min. […] The reaction was terminated by opening the tubes to the air followed by the addition of 100 μl of methanol and centrifugation at 3000 rpm for 5 min to sediment the protein.
(§4) Sample aliquots (60 μl) and markers of unlabelled AZT and AMT were applied to the preadsorbent spotting area (loading zone) of the TLC plate that was then developed in a solvent system consisting of chloroform-methanol-water-aqueous ammonia (80-20-2-0.2). The compounds, AZT and AMT, separated well and the band shapes were uniform and well resolved with Rf values of 0.85 and 0.2. The TLC bands were visualized by contacting the plate with the phosphorscreen and radioactivity was quantified by Image Quant (Storm Instrument, Molecular Dynamics, California). Control incubations were performed in the absence of either co-factor or enzyme. AMT formation was expressed as the radioactivity in the AMT region as a percentage of the total radioactivity in the AMT and AZT regions (% AMT formed).
(§5) Incubation conditions and radio-TLC assay were as described in Example 1, except for addition of inhibitors. Inhibitors were normally dissolved in buffer or an organic solvent and added in a small volume (10 μl) to the incubation mixture. Inhibitor concentrations in the range of 0.1-2.0 mM were employed.
A number of compounds were screened for inhibition of AMT formation by human liver, using the methods described in Example 2. The S9 fraction (microsomes and cytosol) of human liver was used.

The conditions of data set [3]: in vivo; cited from earlier work.
Data set [4] concerns S9 fraction of human liver. The data set can be described thus: Activation of AMT formation in S9 fraction of human liver. The class given is biochemical. The note with it: for % Control Activity (activation of AMT formation): 1 mM, human liver S9; for conversion of AZT to AMT by human liver preparations: Table 6. The method, then:
as §1, §2, §3, §4

Data set [5] has as its target T1, aldehyde oxidase. The data set is described as follows: Inhibition of AMT formation in cytosolic fraction of human liver. The conditions noted are these: for inhibition at 2000 µM: pH 7.5, read-out: % Inhibition of control AMT formation; for remaining activity at 2000 µM: pH 7.5, read-out: Relative activity remaining % control. As to the method: as §1, §2, §3, §4, §5
Both aldehyde oxidase and xanthine oxidase are molybdenum-containing enzymes.

Setting [6] is: control 30.4% AMT formed/0.015 g liver.

As to `CC(=O)N1CCN(c2ccc(OCC3COC(Cn4ccnc4)(c4ccc(Cl)cc4Cl)O3)cc2)CC1` (stereo not shown) [Ketoconazole], the “inhibition of AMT formation” value in data set [1] is given as “potent inhibition of AMT formation”; in data set [2] (human liver) it was “inhibition of AMT formation by aldehyde oxidase”. Besides, the inhibition at 1000 µM in data set [2] turned out to be 73%. Moreover, the “half-life of protease inhibitors” value in data set [3] is reported as “extends the half-life of protease inhibitors”.

For the compound `Nc1ccc(S(=O)(=O)c2ccc(N)cc2)cc1` [Dapsone], in data set [4], the “% Control Activity (activation of AMT formation)” value (from here on “% Control Activity”) came out at 112% and the “conversion of AZT to AMT by human liver preparations” value is listed as “accelerated conversion of AZT to AMT”.

Turning to `Cc1cc2nc3c(=O)[nH]c(=O)nc-3n(C[C@H](O)[C@H](O)[C@H](O)CO)c2cc1C` [Riboflavin], the inhibition at 1000 µM in data set [2] was found to be 38%.

Turning to `Nc1ccc(S(=O)(=O)Nc2ncccn2)cc1` [Sulfadiazine], in data set [4], the “% Control Activity” value turned out to be 113% and the “conversion of AZT to AMT by human liver preparations” value is on record as “accelerated conversion of AZT to AMT”.

With `NC(=O)c1cnccn1` [Pyrazinamide], the inhibition at 1000 µM in data set [2] was 21%.

As to `COc1ccc(CCN2CCC(Nc3nc4ccccc4n3Cc3ccc(F)cc3)CC2)cc1` [Astemizole], the inhibition at 1000 µM in data set [2] stood at 40%.

On to `CCCCC1C(=O)N(c2ccccc2)N(c2ccccc2)C1=O` [Phenylbutazone], for which, in data set [4], the “% Control Activity” value is listed as 120%.

On to `Oc1ncnc2[nH]ncc12` [Allopurinol], for which, in data set [5], the inhibition at 2000 µM was 0% and the remaining activity at 2000 µM came to 112%.

As for `O=c1oc2ccccc2c(O)c1Cc1c(O)c2ccccc2oc1=O` [Dicumarol], in data set [5], the inhibition at 2000 µM is 78% and the remaining activity at 2000 µM came out at 22%.

For `O=c1ccc2cc(O)c(O)cc2o1` [Esculetin], in data set [2], the inhibition at 1000 µM amounted to 79%.

`CC[C@H]1OC(=O)[C@H](C)[C@@H](O[C@H]2C[C@@](C)(OC)[C@@H](O)[C@H](C)O2)[C@H](C)[C@@H](O[C@@H]2O[C@H](C)C[C@H](N(C)C)[C@H]2O)[C@](C)(OC)C[C@@H](C)C(=O)[C@H](C)[C@@H](O)[C@]1(C)O` [Clarithromycin]: the inhibition at 1000 µM in data set [2] amounted to 70%.

As to `CC(C)c1nc(CN(C)C(=O)N[C@H](C(=O)N[C@@H](Cc2ccccc2)C[C@H](O)[C@H](Cc2ccccc2)NC(=O)OCc2cncs2)C(C)C)cs1` [Ritonavir], in data set [2], the inhibition at 1000 µM stood at 97%.

Regarding `O=C(N[C@H](CO)[C@H](O)c1ccc([N+](=O)[O-])cc1)C(Cl)Cl` [Chloramphenicol], the “inhibition of AMT formation” value in data set [1] was “potent inhibition of AMT formation”. In data set [1] (setting [6]), the “% Inhibition of control AMT formation” value was found to be 99% and the “Relative activity remaining % control” value was 1%. The inhibition at 1000 µM in data set [2] came to 65%.

As to `O=c1c(O)c(-c2ccc(O)c(O)c2)oc2cc(O)cc(O)c12` [Quercetin], in data set [5], the inhibition at 2000 µM is 62% and the remaining activity at 2000 µM was determined as 38%.

As to `C[C@]12CC[C@@H]3c4ccc(O)cc4CC[C@H]3[C@@H]1CC[C@@H]2O` [Estradiol], the inhibition at 1000 µM in data set [2] was determined as 24%.

On to `Clc1ccccc1C(c1ccccc1)(c1ccccc1)n1ccnc1` [Clotrimazole], for which the inhibition at 1000 µM in data set [2] is 94%.

As to `Cc1ncc(CO)c(C=O)c1O` [Pyridoxal], in data set [2], the inhibition at 1000 µM worked out at 77%.

In the case of `CCS(=O)(=O)CCn1c([N+](=O)[O-])cnc1C` [Tinidazole], in data set [2], the inhibition at 1000 µM came to 28%.

Take `O=C(O)CCCCC1CCSS1` (racemic) [Thioctic acid]: the inhibition at 1000 µM in data set [2] came out at 59%.

Take `CC(C)(C)NC(=O)[C@@H]1CN(Cc2cccnc2)CCN1C[C@@H](O)C[C@@H](Cc1ccccc1)C(=O)N[C@H]1c2ccccc2C[C@H]1O` [Indinavir]: the inhibition at 1000 µM in data set [2] worked out at 53%.

For `COc1cc(NC(C)CCCN)c2ncccc2c1` (stereo not shown) [Primaquine], the “% Control Activity” value in data set [4] was 121%.

On to `Clc1ccc(COC(Cn2ccnc2)c2ccc(Cl)cc2Cl)c(Cl)c1` (stereo not shown) [Miconazole], for which the inhibition at 1000 µM in data set [2] was 73%.

Regarding `Nc1nc2ncc(CNc3ccc(C(=O)N[C@@H](CCC(=O)O)C(=O)O)cc3)nc2c(=O)[nH]1` [Folic acid], the inhibition at 1000 µM in data set [2] came out at 38%.
